The values below come from patent publication US5416118A, “Bicyclic amides as inhibitors of acyl-coenzyme A: cholesterol acyl transferase” (Schering Corporation, priority 1993, dated 1995).

Each structure is given as a SMILES string.

One experiment deals with cholesteryl esters. The experiment is described as follows: In Vivo Assay of Hypolipidemic Agents Using the Hyperlipidemic Hamster. The note with it: Mesocricetus auratus, po, 168 h, 50 mpk, oral gavage once daily, 7 days, versus control; read-out: % Reduction in cholesteryl esters. Here is the method:
In Vivo Assay of Hypolipidemic Agents Using the Hyperlipidemic Hamster
Hamsters are separated into groups of six and given a control cholesterol diet (Pudna Chow #5001 containing 0.5% cholesterol) for seven days. Diet consumption is monitored to determine dietary cholesterol exposure in the face of test compounds. The animals are dosed with the test compound once daily beginning with the initiation of diet. Dosing is by oral gavage of 0.2 mL of corn oil alone (control group) or solution (or suspension) of test compound in corn oil. All animals moribund or in poor physical condition are euthanized. After seven days, the animals are anesthetized by […] of ketamine and sacrificed by decapitation. Blood is collected into vacutainer tubes containing EDTA for plasma lipid analysis and the liver excised for tissue lipid analysis. Data is reported as percent reduction of lipid versus control.
(§1) Using the assay methods described above, the compounds of Examples 1-9 were tested for in vitro ACAT inhibitory activity and for the ability to lower the level of cholesteryl esters in vivo.

Another experiment deals with ACAT. The experiment is described as follows: ACAT Assay (in vitro). The class given is biochemical. The settings on record: dose = 10 μM; rat liver microsomes. Here is the method: This assay measures the activity of ACAT by measuring the ACAT-mediated transfer of tritiated oleic acid from acyl-CoA to cholesterol to give labelled cholesterol oleate. Rat liver microsomes are used as the source of ACAT. Assays are performed in round bottom microtiterplates using a total incubation volume of 50 μL. Each incubation well receives 10 μL assay buffer (0.5M KHPO4, 10 μM dithiothreitol, pH 7.4), 7.5 μL of 40 mg/mL BSA (Bovine Serum Albumin) and 12.5 μg of microsomal protein. The test compound (in sufficient amount to bring the final concentration to from 0.1 to 25 μM), reference compound, or vehicle control is added and the final volume brought to 47 μL. The microtiterplate is then floated on the surface of a 37° C. water bath for fifteen minutes. Incubations are started by the addition of 3 μL ^3 H-acyl CoA (1 μCi/well, final concentration of 10 μM acyl CoA). The plate is then returned to the water bath for 15 minutes. The incubations are then terminated by application of 15 μL from each incubation to individual lanes on a thin layer plate (Silica Gel GF 20×20 cm). Standards are applied to several lanes so that the cholesterol ester band can be identified. After drying, the plates are eluted with 90:10:1 petroleum ether:ether:HOAc. The standards are visualized via iodine vapor, and the regions corresponding to cholesterol ester are scraped into 7 mL scintillation vials. 4 mL of scintillant are added to each vial, and the radioactivity quantified. Background count is determined by the boiled controls. Full activity is determined by activity in the presence of vehicle. The percent inhibition is calculated by subtracting the background from both control and test samples, and the test value is calculated as a percentage of the control. For IC50 determinations, the inhibition is plotted against drug doses on a log scale and the concentration at which 50% inhibition is obtained is determined.
as §1
A general note: Microsomes from liver hold many membrane-bound enzymes, among them those of drug oxidation.

For `Cc1cc([C@H]2Cc3ccccc3[C@H]2NC(=O)C(c2ccccc2)c2ccccc2)cc(C)c1O` (single isomer, unassigned) [Example 9A, (+)-cis-N-[2-(3',5'-dimethyl-4'-hydroxyphenyl)indanyl]-α-phenylbenzeneacetamide], the change in vivo at 50 mg/kg in the experiment on cholesteryl esters was -60%. Also, the “ACAT % Inhibition” value with ACAT came out at 97%.
